Source: US7012098B2, “Inhibitors of inducible nitric oxide synthase for chemoprevention and treatment of cancers” (Pharmacia Corporation, priority 2001, dated 2006)
pIC50: −log10 of the molar value. Structures can show the parent of a compound that is named as a salt. Where two headings read alike, the source gives them in different places.

Assays:
[1] = tested on: AOM-induced colonic ACF; test: Chemopreventive effects in rats with azoxymethane-induced aberrant crypt foci; assay type: in vivo, male F344 rats; conditions: for Foci containing 1 Crypt / Foci containing 2 Crypt / Foci containing 3 Crypt / Foci containing ≧4 Crypts / Total ACF incidence: AOM-treated male F344 rats, Mean ± SEM; for inhibition at 320 ppm: feed or water, positive control
Text: In Vivo Assay of Chemopreventive Effects of Therapeutic Compounds in Rats with Azoxymethane-induced Aberrant Crypt Foci
(§1) Azoxymethane (AOM) (CAS:25843-45-2) was purchased from Ash Stevens (Detroit, Mich.). iNOS and COX-2 selective inhibitors were provided by Pharmacia, (St. Louis, […].). Sulindac, a non-selective inhibitor of COX-isoforms and a known inhibitor of colon carcinogenesis, was supplied by the Chemoprevention Branch of the National Cancer Institute (Bethesda, Md.). Weanling male F344 rats were purchased from Charles River Breeding Laboratories (Kingston, N.Y.). All ingredients of the semipurified diet were obtained from Dyets Inc., (Bethlehem, Pa.) and were stored at 4° C. until the experimental diets were prepared. The rats were held in quarantine for 1 week and had access to modified AIN-76A semipurified control diet (Reddy et al., Cancer Res. 50: 2562-2568, 1990, which is herein incorporated by reference.). They were randomly distributed into various dietary groups and were transferred to an animal holding room where they were housed, three rats to a plastic cage, under controlled conditions of a 12-h light/12-h dark cycle, 50% relative humidity and 21° C. room temperature. Experimental diets were prepared by mixing chemopreventive agents with modified AIN-76A control diet.
To quantify aberrant crypt foci, after a minimum of 24 h in buffered formalin, the colons were cut into 2-cm segments starting at the anus; for the next 5-10 min they were placed in a Petri dish containing 0.2% methylene blue in Krebs Ringer solution. They were then placed, mucosal side up, on a microscope slide and observed through a light microscope. Aberrant crypt foci were recorded according to standard procedures that are being used routinely in our laboratory (Rao et al., Carcinogenesis 21: 617-21, 2000; Rao et al., Cancer Res. 53:4182-88, 1993, which are herein incorporated by reference.). […] The parameters used to assess the aberrant crypts were their occurrence and multiplicity. Crypt multiplicity was determined as the number of crypts in each focus and categorized as containing up to 3, or 4 or more aberrant crypts/focus.

[2] = tested on: NOS; test: Colonic mucosal NOS activity after dietary treatment; assay type: in vivo, male F344 rats; conditions: 500 ppm in diet; AOM-treated rats, colonic mucosa; Mean ± SEM
Procedure: In Vivo Assay of Modulation of Colonic Mucosal Activities of NOS and COX isoforms by iNOS and COX-2 Inhibitors
NOS and iNOS activities were determined in colonic samples as prepared and described above. Conversion of L-arginine to L-citrulline was measured by a modification of an earlier described method (Rao et al, Carcinogenesis 21, supra; Ambs et al., Cancer Res. 58:334-41, 1998, which is herein incorporated by reference). The assay was carried out by adding 100 μg sample protein to 150 μl of assay buffer [50 mM HEPES, 1 mM DTT, 1 mM MgCl2, 5 mg/L pepstatin A, 0.1 mM PMSF, and 3 mg/L aprotinin, pH 7.4] containing 70 μM arginine, 250,000 dpm L-[^3H]-arginine, 2 mM NADPH, 5μM tetrahydro biopterin, 5 μM flavin adenine dinucleotide, and 0.5 mM CaCi2 to measure total NOS activity, or 1 mM EGTA (without calcium) to determine Ca+^2-independent iNOS activity. After 30 min at 37° C., the reaction was stopped with 100 μl of 1M trichloroacetic acid. Then the samples were adjusted to pH 4.6 by adding 500 μl of 20 mM HEPES and loaded on to Dowex AG 50W-X8 resin columns. L-[^3H]-citrulline was eluted and separated on TLC. Radioactivity was counted by a BioScan Radiomatic detector. Results are expressed as pmol L-[^3H]-citrulline released/mg protein/min.

[3] = tested on: LPS-induced increase in plasma nitrite/nitrate levels; test: In Vivo Assay, endotoxin-treated rats, plasma nitrite/nitrate; conditions: administered orally
Procedure: Plasma nitrite/nitrate levels can be determined 5 hours post-treatment.

[4] = tested on: Human Cartilage; test: Human Cartilage Explant Assay (nitrite production); assay type: cell-based; conditions: inhibition of nitrite production, IL-1β-induced explants
Procedure: Human Cartilage Explant Assay
Bone pieces are rinsed twice with Dulbecco's Phosphate Buffered Saline (GibcoBRL) and once with Dulbecco's Modified Eagles Medium (GibcoBRL) and placed into a petri dish with phenol red free Minimum Essential Medium (MEM) (GibcoBRL). Cartilage was cut into small explants of approximately 15-45 mg in weight and one or two explants per well are placed into either 96 or 48 well culture plates with 200-500 μL of culture media per well. The culture media was either a custom modification of Minimum Essential Medium(Eagle) with Earle's salts (GibcoBRL) prepared without L-Arginine, without L-Glutamine and without phenol red or a custom modification of serumless Neuman and Tytell (GibcoBRL) medium prepared without L-arginine, without insulin, without ascorbic acid, without L-glutamine and without phenol red. Both are supplemented before use with 100 μM L-Arginine (Sigma), 2 mM L-glutamine, 1X HL-1 supplement (BioWihittaker), […] ascorbic acid (Sigma) and 150 pg/ml recombinant human IL-1β (RD Systems) to induce nitric oxide synthase. Compounds are then added in 10 μL aliquots and the explants incubated at 37° C. with 5% CO2 for 18-24 hours. The day old supernatant is then discarded and replaced with fresh culture media containing recombinant human IL-1? and compound and incubated for another 20-24 hours. […] All samples are done in quadruplicate. Unstimulated controls are cultured in media in the absence of recombinant human IL-1β. IC50 values (Table I) are determined from plotting the percent inhibition of nitrite production at six different concentrations of inhibitor.

[5] = tested on: azoxymethane-induced colonic aberrant crypt foci; conditions: cited from earlier work; for formation of colonic aberrant crypt foci: male F344 rats
[6] = Body weights and toxicity on experimental diets; assay type: in vivo, male F344 rats
Text: as §1

[7] = Rattus norvegicus, po, read-out: ED50

With Cc1ccc(-c2cc(C(F)(F)F)nn2-c2ccc(S(N)(=O)=O)cc2)cc1 [Celecoxib, celecoxib] the “Foci containing 1 Crypt” value ([1]; 500 ppm in diet) was 26.8 ± 2.1, the “Foci containing 2 Crypt” value ([1]; 500 ppm in diet) was 27.3 ± 2.0 and the “Foci containing 3 Crypt” value ([1]; 500 ppm in diet) was 23.7 ± 2.3. For the same compound, the “Foci containing ≧4 Crypts” value ([1]; 500 ppm in diet) was 23.3 ± 2.7, the “Total ACF incidence” value ([1]; 500 ppm in diet) was 102 ± 7.5 and the inhibition at 500 ppm ([1]; Rattus norvegicus, 500 ppm, read-out: inhibition of total ACF) was 5 to 20%. For the same compound, the “NOS Activity, NOS” value [2] was 11.3 ± 2.1 pmoles [^3H]-citrulline/mg pro.

For CC(=N)NC/C(F)=C\CC[C@H](N)C(=O)O [Example A, (2S,5E)-2-amino-6-fluoro-7-[(1-iminoethyl)amino]-5-heptenoic acid, dihydrochloride], the ED50 ([3]; dihydrochloride) was less than 0.1 mg/kg.

For CC(=N)NC/C(F)=C\CC[C@](C)(N)C(=O)O.Cl.Cl [Example HH, (2S,5E)-2-amino-2-methyl-6-fluoro-7-[(1-iminoethyl)amino]-5-heptenoic acid, dihydrochloride], the pIC50 ([4]; Homo sapiens) was 6.40 and the ED50 [3, 7] was 0.4 mg/kg.

Work on COC[C@](N)(CSCCNC(C)=N)C(=O)O [Example J, 2-[[[2-[(1-Iminoethyl)amino]ethyl]thio]methyl]-O-methyl-D-serine, dihydrochloride] yielded a pIC50 [4] of 5.09.

Work on CC(=N)NC/C=C\CC[C@](C)(N)C(=O)O.Cl.Cl [Example LL, (2S,5Z)-2-amino-2-methyl-7-[(1-iminoethyl)amino]-5-heptenoic acid, dihydrochloride] yielded a pIC50 ([4]; Homo sapiens) of 6.10 and an ED50 [3, 7] of 0.3 mg/kg.

For Cl.N=C1CCCC[C@H](CCCC[C@@H](N)C(=O)O)N1.O.O.O [Example V, (αR,2S)-α-aminohexahydro-7-imino-1H-azepine-2-hexanoic acid, trihydrate hydrochloride], the pIC50 ([4]; Homo sapiens) was greater than 5.00 and the ED50 [3, 7] was less than 3 mg/kg.

Cl.N=C1CCCC[C@@H](CCCC[C@H](N)C(=O)O)N1.O.O.O [Example W, (αS,2R)-α-aminohexahydro-7-imino-1H-azepine-2-hexanoic acid, trihydrate hydrochloride] showed a pIC50 ([4]; Homo sapiens) of less than 4.52 and an ED50 [3, 7] greater than 10 mg/kg.

N=C1CCCC[C@H](CCCC[C@H](N)C(=O)O)N1 [Example X, (αS,2S)-α-aminohexahydro-7-imino-1H-azepine-2-hexanoic acid, trihydrate hydrochloride] showed a pIC50 [4] greater than 5.00.

Work on N=C1CCCC[C@H](CCCC[C@H](N)C(=O)O)N1 [Example Z, (αS,2S)-α-aminohexahydro-7-imino-1H-azepine-2-hexanoic acid, trihydrate hydrochloride] yielded a pIC50 ([4]; Homo sapiens) greater than 5.00.

For N=C(N)SCCc1ccc(CCSC(=N)N)cc1 [PBIT], the “azoxymethane-induced colonic aberrant crypt foci development and iNOS activity” value ([5]; laboratory rodents) is given as “prevented”.

With CC1=C(CC(=O)O)c2cc(F)ccc2/C1=C\c1ccc([S+](C)[O-])cc1 (stereo not shown) [Sulindac] the “Foci containing 1 Crypt” value ([1]; 320 ppm in diet) was 23.3 ± 1.8, the “Foci containing 2 Crypt” value ([1]; 320 ppm in diet) was 28.0 ± 1.5 and the “Foci containing 3 Crypt” value ([1]; 320 ppm in diet) was 17.3 ± 1.7. For the same compound, the “Foci containing ≧4 Crypts” value ([1]; 320 ppm in diet) was 16.5 ± 0.9, the “Total ACF incidence” value ([1]; 320 ppm in diet) was 84.9 ± 4.1 and the inhibition at 320 ppm ([1]; Rattus norvegicus, 320 ppm in diet, read-out: inhibition of multicrypt clusters containing 4 or more aberrant crypts/focus) was 50%. The inhibition at 320 ppm ([1]; Rattus norvegicus, 320 ppm in diet, read-out: inhibition of total ACF/colon) was 40%, the body weights ([6]; rats treated with vehicle or AOM, control vs experimental diets, throughout the study period) was “comparable” and the “toxicity or gross changes in the liver, kidney, intestine and lungs” value ([6]; vehicle-treated rats fed the experimental diets) was “did not produce any toxicity or any gross changes”.

For COc1ccc2cc(CCC(C)=O)ccc2c1 [nabumetone], the “formation of colonic aberrant crypt foci” value [5] is given as “inhibit”.

For CS(=O)(=O)Nc1ccc([N+](=O)[O-])cc1Oc1ccccc1 [nemisulide], the “formation of colonic aberrant crypt foci” value [5] is listed as “inhibit”.
